This is an account of results in patent US20130252821A1, “METHODS AND COMPOSITIONS FOR THE TREATMENT AND DIAGNOSIS OF DISEASES CHARACTERIZED BY VASCULAR LEAK, HYPOTENSION, OR A PROCOAGULANT STATE” (Beth Israel Deaconess Medical Center, Inc., priority 2005, published 2013).

One series has as its system Rac1. Briefly: Rac1 activity assay (pull-down). It is filed as cell-based, human. Conditions: p190RhoGAP siRNA. As for the experimental part:
(§1) These were performed and quantified using the commercially available kit according to the manufacturer's instruction (Cytoskeleton, Denver, Colo.). After signal starvation, HMVEC-L were treated with vehicle, Ang-1 (100 ng/ml) with or without inhibitor for the indicated time and harvested with lysis buffer. Following a brief centrifugation to remove cell debris, lysates from the cells containing equivalent protein concentrations were incubated for 60 minutes with 40 μL slurry of a GST-fusion protein composed of Rac1 or RhoA effector proteins coupled to agarose beads. After washing with lysis buffer, samples were subjected to immunoblotting and detected with anti-Rac1 or anti-RhoA antibody (Santa Cruz Biotechnology, Santa Cruz, Calif.). Whole cell lysates were also run to determine the total amount of Rac1 or RhoA protein.

A further series has as its system RhoA. Nature of the series: Rho activity assay (pull-down) in HMVEC-L. It is filed as cell-based, human. The conditions noted are these: p190RhoGAP siRNA. As for the experimental part:
as §1

The next series deals with HMVEC-L monolayer. Nature of the series: Measurement of endothelial permeability in vitro (FITC-albumin). The conditions noted are these: p190RhoGAP siRNA. It is filed as cell-based, human. As for the experimental part:
Coster Transwell membranes (Corning Inc. Corning, N.Y.) were coated with 0.5% Gelatin and cells were grown until confluence. Vehicle or proteins with FITC-albumin (1 mg/ml) was added to the luminal chamber for 4 hours, and samples were taken from both the luminal and abluminal chamber for fluorometry analysis. The readings were converted with the use of a standard curve to albumin concentration. These concentrations were then used in the following equation to determine the permeability coefficient of albumin (Pa).
(§2) [A] is abluminal concentration; t is time in seconds; A is area of membrane in cm^2; V is volume of abluminal chamber; and [L] is luminal concentration. siRNA Transfection: HMVEC-Ls were seeded and control small interfering RNA (siRNA) (Ambion, Ausin, Tex.) or siRNA directed to human p190RhoGAP (5′-[…]-3′ SEQ ID NO: 5 and 5′-[…]-3′ SEQ ID NO: 6) was transfected using SilentFect Lipid reagent (Bio-Rad) according to the manufacturer's instructions. The cells were used for each experiment 3 days after transfection. Almost 90-100% cells were transfected with siRNA (checked by fluorescent labeled siRNA). Down-regulation of p190RhoGAP was verified by immunoblotting. We tested two different siRNA for the experiment and obtained similar results.

The test system of series [1] is mice (female FVB strain), lung. Nature of the series: In vivo permeability assay (Evans blue, LPS). Set-up: species or system mouse. Conditions: p190RhoGAP siRNA, endotoxin plus Ang-1. As for the experimental part:
Mice (8-12 weeks old, female FVB strain) were pretreated with Ang-1 (10 mcg, ip). 8 hours after the first Ang-1 injection, the second dose of Ang-1 (10 mcg, ip) and LPS (100 μg, ip) were co-injected. Lung permeability was assessed 16 hours after the second injection. Mice were anesthetized with Avertin (2,2,2-Tribromoethanol) and 2% Evans blue (50 μl) was then injected into the retro-orbital sinus. Ten minutes after Evans blue injection, mice were sacrificed and perfused with PBS with 2 mM EDTA for 10 minutes through a cannula placed in the right ventricle. […] Organs were then harvested and homogenized in 1.5 nil formamide. Evans blue was extracted by incubating the samples at 70° C. for 24 hours, and the concentration of Evans blue was estimated by dual-wavelength spectrophotometer (620 and 740 nm). The following formula was used to correct optical densities (E) for contamination with heme pigments: E620 (corrected)=E620−(1.426XE740+0.030).

For series [2], the system named is p190RhoGAP. Nature of the series: siRNA knockdown of p190RhoGAP in HMVEC-L (immunoblot). It is filed as cell-based, human. The procedure: as §2
For series [3], the system named is p190RhoGAP. Nature of the series: In vivo delivery of siRNA, p190RhoGAP in mouse lung (Western). Conditions: 10 μg siRNA, hydrodynamic tail vein delivery. As for the experimental part:
Mice were treated as above and lungs were harvested, fixed in 10% formalin, embedded in paraffin, sectioned, and stained with hematoxilin and eosin. In Vivo Delivery of siRNA: Delivery of siRNA into mice was performed by TransIT® Hydrodynamic delivery solution (Mires, Madision, Wis.) per the manufacturer's instruction. Mice were injected with either 10 μg control siRNA or 10 μg p190RhoGAP siRNA in 2 nil delivery solution injected into the tail vein over 7 seconds. Four days later, p190RhoGAP knockdown was confirmed by lysing organs in RIPA buffer and performing Western analysis as outlined above. In vivo permeability and histological examination were performed as described above.

Another series deals with VEGF. Nature of the series: Serial free VEGF levels in patients on HD IL-2. The series is classed as in vivo, human. Conditions: four patients, single bevacizumab infusion two weeks prior to HD IL-2. An excerpt:
Over a 6 month period at Beth Israel Deaconess Medical Center we prospectively collected discarded serum and plasma samples from oncology patients receiving high dose IL-2. […] After detailing these promising results, we then collected bloods before IL-2 infusion and with each successive days morning labs. Whenever possible, we also obtained discarded blood from all follow up outpatient appointments. All identifying information was removed and data was encoded to protect patient privacy. Clinical data was collected on each patient by chart review. This study was approved by the institutional IRB.

Regarding “p190RhoGAP siRNA: siRNA directed to human p190RhoGAP (SEQ ID NO: 5 and 6) (chain 1 GGAUUGUGUGGAAUGUAAG; chain 2 CUUACAUUCCACACAAUCC; listed as RNA, chemistry not given here) [reference compound]”, in the series on Rac1, the “effect on Ang-1-induced Rac1 activation” value is on record as “did not affect”. Moreover, the “effect on Ang-1-induced RhoA inhibition” value in the series on RhoA is “abolish”. The “effect on basal permeability” value with HMVEC-L monolayer is “little effect”. Also, the “effect on rescue by Ang-1” value with HMVEC-L monolayer (endotoxin plus Ang-1) was “prevent the rescue effect of Ang-1”. Besides, the “effect on protection by Ang-1 in the lung” value in series [1] was “sufficient to block the protective effect of Ang-1”. Also, in the series on p190RhoGAP [2], the “block of p190RhoGAP expression” value is 90%. Besides, in the series with p190RhoGAP [3], the “p190RhoGAP expression in lung tissue” value is reported as “diminished p190RHoGAP expression”.

As for “bevacizumab: a neutralizing antibody to VEGF”, the “free VEGF levels” value with VEGF is listed as “low throughout protocol”.
